Measurements from the Kinase Knowledgebase extract (Sharma et al. 2016).

Target: EGFR (Wistar rat) (UniProt P00533)
Conditions: hepatocyte, dose or concentration not given here

EGFR (Wistar rat), sequence (P00533 whole entry, looked up): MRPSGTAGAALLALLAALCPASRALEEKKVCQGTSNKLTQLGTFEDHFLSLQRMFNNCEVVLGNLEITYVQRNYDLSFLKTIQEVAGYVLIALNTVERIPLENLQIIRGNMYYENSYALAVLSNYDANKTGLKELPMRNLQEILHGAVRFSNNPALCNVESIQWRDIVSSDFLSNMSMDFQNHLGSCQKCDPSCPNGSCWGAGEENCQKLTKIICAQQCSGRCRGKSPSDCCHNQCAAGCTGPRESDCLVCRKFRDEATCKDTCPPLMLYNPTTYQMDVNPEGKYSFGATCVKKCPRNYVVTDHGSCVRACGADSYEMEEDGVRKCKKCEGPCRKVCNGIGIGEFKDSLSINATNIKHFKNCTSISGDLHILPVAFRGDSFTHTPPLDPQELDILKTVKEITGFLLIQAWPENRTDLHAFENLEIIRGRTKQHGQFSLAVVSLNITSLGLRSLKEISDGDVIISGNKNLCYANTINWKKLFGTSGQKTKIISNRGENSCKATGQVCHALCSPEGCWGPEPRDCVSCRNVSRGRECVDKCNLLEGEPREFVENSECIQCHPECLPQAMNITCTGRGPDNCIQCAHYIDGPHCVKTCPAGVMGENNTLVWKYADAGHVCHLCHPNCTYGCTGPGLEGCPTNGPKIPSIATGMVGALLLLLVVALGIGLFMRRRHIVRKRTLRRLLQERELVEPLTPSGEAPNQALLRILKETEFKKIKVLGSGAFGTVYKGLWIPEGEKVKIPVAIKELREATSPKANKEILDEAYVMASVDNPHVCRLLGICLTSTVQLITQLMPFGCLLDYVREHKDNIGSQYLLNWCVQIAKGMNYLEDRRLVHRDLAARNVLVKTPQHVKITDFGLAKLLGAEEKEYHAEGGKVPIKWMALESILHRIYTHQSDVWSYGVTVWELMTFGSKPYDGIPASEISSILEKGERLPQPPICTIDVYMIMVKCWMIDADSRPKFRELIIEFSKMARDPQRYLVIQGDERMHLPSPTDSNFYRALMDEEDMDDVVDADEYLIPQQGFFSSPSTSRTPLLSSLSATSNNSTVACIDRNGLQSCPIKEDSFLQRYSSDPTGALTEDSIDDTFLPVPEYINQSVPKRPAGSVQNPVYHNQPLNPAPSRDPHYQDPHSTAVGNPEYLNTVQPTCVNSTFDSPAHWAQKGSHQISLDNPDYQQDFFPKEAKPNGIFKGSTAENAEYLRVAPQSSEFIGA

For `COc1cccc(-c2cc(=O)c3ccccc3o2)c1N`, the DNA synthesis was 16%.
